Experimental findings from publication PMC12476087, “Loading of Dicarboxylatoplatinum(II)‐NHC Complexes in Bacterial Ghosts as an Advanced Development in Cancer Therapy” (Archiv Der Pharmazie, 2025) are described below.

Common to all, as to assay type: cell-based
The subject of one experiment is HS‐5 cells. The experiment can be described thus: MTT assay, HS‐5 cells. The following applies: 72 h exposure, nonmalignant bone marrow stromal cells. The protocol: Carboplatin, a second‐generation platinum drug commonly used as part of standard first‐line chemotherapy for ovarian carcinoma, was examined as a reference compound due to its clinical relevance. Additionally, the nonmalignant bone marrow stromal cell line HS‐5 was included as a control to assess specificity of the complexes toward cancer cells.
The exponentially growing cells were seeded at a density of 8 × 10^3 cells/well (A2780wt/cis) or 1 × 10^4 cells/well (HS‐5), respectively, into clear flat‐bottom 96‐well plates in triplicates. Following 24 h of incubation for the adherence of the cells at 37°C in a humidified atmosphere (5% CO2/95% air), the test compounds were added. […] For the evaluation of the cell growth inhibition by the compounds loaded in BGs, the BG suspensions were directly diluted in RPMI 1640 to the desired testing concentration (25 µM). After another 72 h of incubation, the cellular metabolic activity was measured as an indicator of cell viability employing an MTT assay. Hereby, 20 µL of a 5 mg/mL MTT solution was added to each well, respectively. After 3 h of incubation, the medium was discarded, and the formazan crystals formed were dissolved in DMSO for 15 min with gentle shaking. Afterward, the optical density (OD) was measured at 595 and 620 nm, respectively on an EnSpire Multimode Plate Reader (revvity, Waltham, MA, USA). The OD at 620 nm was subtracted from the OD at 595 nm. The OD of the medium was subtracted to exclude the unspecific staining caused by FCS‐containing medium. Cells treated with vehicle control (0.1% DMF) only were set at 100% metabolic activity. The IC50 values were calculated with Prism 8.0 (GraphPad Software Inc., Boston, MA, USA) using nonlinear regression. Significance was evaluated via a one sample t‐test performed with Prism 8.0.
In general terms: Tetrazolium assays rely on reduction of a dye to a coloured formazan, in cell work by metabolically active cells.

The next experiment relates to A2780wt cells. Briefly: Comet assay (intracellular DNA damage). The following applies: 50 µM, 48 h incubation. The protocol: Given that platinum‐based drugs are known to commonly induce DNA damage, a comet assay was conducted using A2780wt cells. This assay detects DNA damage such as DNA single/double strand breaks and DNA fragmentation, a common feature of apoptosis. […] DMF (0.1%)‐treated cells were used as a negative control to establish baseline DNA integrity.
Cellular DNA damage can be visualized by employing a comet assay, which is a single cell gel electrophoresis assay. Hereby, A2780wt cells were seeded at a density of 2 × 10^6 into 25 cm^2 flasks. After letting the cells adhere for 24 h in a humidified atmosphere, the cell culture medium was exchanged for medium containing the respective compound. The cells were then incubated for 48 h with the platinum complexes or 4 h with etoposide, respectively. After incubation, the cell growth was stopped by removing the compound‐containing medium, washing the cells with phosphate‐buffered saline (PBS) and detaching them with a rubber policeman. The detached cells were then centrifuged at 700g for 2 min and the resulting pellet was then washed with 5 mL of PBS. After that, the cells were adjusted to a concentration of 1 × 10^6 cells/mL and were resuspended in ice cold PBS. A total of 75 µL of liquified agarose per condition was transferred onto the slide to create a base layer. This base layer was solidified by transferring the slide to 4°C for 15 min. Afterwards, 10 µL of the above‐mentioned cell suspension in PBS were mixed with 90 µL of agarose. A total of 75 µL of this was added to each base layer, respectively. This layer was also allowed to solidify at 4°C for 15 min. The slide was then transferred to a small basin which contained pre‐chilled lysis buffer (14.6 g NaCl, 20 mL EDTA solution, 10 mL lysis solution, 10 mL DMSO, 60 mL deionized H2O), where it remained for 45 min in the dark at 4°C. The lysis buffer was then aspirated and exchanged with a pre‐chilled alkaline solution (1.2 g NaOH, 0.2 mL EDTA solution, 100 mL deionized H2O), where it remained for further 30 min in the dark at 4°C. The slide was then transferred to a horizontal electrophoresis chamber which was filled with cold alkaline solution. The electrophoresis conditions were set to 1.5 V/cm and 300 mA for 20 min. After the electrophoresis, the slide was transferred into a small basin containing pre‐chilled, deionized H2O. After 2 min, the water was aspirated and this washing step was repeated twice more. After the final rinse, the slide was submerged in 70% ethanol for 5 min. Once the slide has dried, 100 µL of diluted Vista Green DNA Dye was added to each well. After 15 min of incubation, the slides were analyzed on an IX‐70 epifluorescence microscope (Olympus, Shinjuku, Japan) using a FITC filter.

Experiment [1] concerns caspase‐3 in A2780wt cells. The experiment can be described thus: Caspase‐3 activity assay (ApoTox‐Glo), A2780wt. The following applies: w/o BGs, 25 µM, 24 h. The protocol:
Furthermore, caspase‐3 activation serves as a primary hallmark of apoptosis. Therefore, we evaluated this induction with a luminescence‐based caspase‐3 activity assay on A2780wt cells.
The caspase‐3 assay was performed to investigate the induction of apoptosis by the compounds. It was performed by employing the commercially available ApoTox‐Glo Triplex Assay (Promega Corporation, Madison, USA), which specifically correlates cell viability and toxicity to apoptosis. In brief, A2780wt and A2780cis cells, respectively, were seeded at a density of 8 × 10^3 cells per well into an opaque‐walled 96‐well plate with solid bottoms. […] After incubation, 20 µL of the provided viability/toxicity reagent was added and incubated for further 30 min on an orbital shaker at 37°C. […] Then, 100 µL of Caspase‐Glo 3/7 reagent was added, gently shaken for 30 s and further incubated for 30 min. The caspase activation was determined via the measurement of the luminescence. Analysis was performed on the BioTek Synergy H1 (Agilent Technologies, Santa Clara, USA).

The subject of another experiment is A2780cis cells. Briefly: ATP luminescence assay, A2780cis. The following applies: w/o BGs, 25 µM, 24 h. From the text:
As a second potential mode of cell death, ICD has been investigated. Thus, two hallmarks of ICD, namely release of adenosine triphosphate (ATP) and calreticulin translocation to the plasma membrane have been analyzed in detail. Given that some platinum complexes, including the clinically used drug oxaliplatin [27], as well as BGs, are known inducers of ICD, we investigated the potential of BGs loaded with platinum(II)‐NHC complexes to trigger this process. […] Untreated cells (without compound and without BGs) were tested as negative controls.
The ATP assay was performed by employing the commercially available ATPlite Luminescence Assay System 96‐well (revvity, Massachusetts, USA). In brief, A2780wt and A2780cis cells, respectively, were seeded at a density of 8 × 10^3 cells per well into an opaque‐walled 96‐well plate with solid bottoms. […] After incubation, 50 µL of the provided mammalian cell lysis solution was added and incubated for further 5 min on an orbital shaker at 700 rpm. Then, 50 µL of a provided substrate solution was added and again incubated for 5 min on an orbital shaker at 700 rpm. The plate was allowed to dark adapt for 10 min and then the luminescence was measured. Analysis was performed on the BioTek Synergy H1.

A word on the IC50: it is the concentration needed to halve the response being measured. Read a high IC50 as weaker potency in that assay.

In the experiment with HS‐5 cells, “(SP‐4‐2)‐Bis(dichloroacetato)bis(1,3‐diethylbenzimidazol‐2‐ylidene)platinum(II) [Compound 4]” yielded an IC50 of 37 ± 1.36 µM. Also, the “intracellular DNA damage (comet formation)” value (“intracellular DNA damage” for short) in the experiment with A2780wt cells was “induced intracellular DNA damage”. Further, the “x-fold caspase-3 induction compared to untreated cells” value (from here on “x-fold caspase-3 induction”) in experiment [1] was found to be 1.89 ± 0.03 x-fold. Also, the ATP concentration with A2780cis cells came to 0.10 ± 0.03 µM.
Turning to `CCN1[C]([Pt]([O]C(=O)C(Cl)Cl)([O]C(=O)C(Cl)Cl)[SH](C)(C)=O)N(CC)c2ccccc21` [Compound 3, (SP‐4‐2)‐Bis(dichloroacetato)(1,3‐diethylbenzimidazol‐2‐ylidene)(dimethylsulfoxide)platinum(II)], the IC50 in the experiment with HS‐5 cells was over 100 µM. Moreover, the “intracellular DNA damage” value in the experiment on A2780wt cells is listed as “induced intracellular DNA damage”. In addition, the “x-fold caspase-3 induction” value in experiment [1] was determined as 3.06 ± 1.20 x-fold. In the experiment with A2780cis cells, the ATP concentration amounted to 0.28 ± 0.04 µM.
In the experiment with HS‐5 cells, `CCN1[C]([Pt]([O]C(C)=O)([O]C(C)=O)[SH](C)(C)=O)N(CC)c2ccccc21` [Compound 1, (SP‐4‐2)‐Diacetato(1,3‐diethylbenzimidazol‐2‐ylidene)(dimethylsulfoxide)platinum(II)] came in with a half-maximal inhibitory concentration (IC50) of 64.3 ± 8.2 µM. The “intracellular DNA damage” value with A2780wt cells is recorded as “induced intracellular DNA damage”. In experiment [1], the “x-fold caspase-3 induction” value stood at 2.64 ± 0.32 x-fold. Moreover, in the experiment on A2780cis cells, the ATP concentration was 0.23 ± 0.05 µM.
For the compound “(SP‐4‐2)‐Diacetatobis(1,3‐diethylbenzimidazol‐2‐ylidene)platinum(II) [Compound 2]”, the IC50 with HS‐5 cells is over 50 µM. Also, the “intracellular DNA damage” value in the experiment with A2780wt cells was “did not show any evidence of comet formation”. Also, the “x-fold caspase-3 induction” value in experiment [1] is reported as 0.39 ± 0.13 x-fold. Also, the ATP concentration in the experiment on A2780cis cells was found to be 0.31 ± 0.04 µM.
